# Assay results: ChEMBL document CHEMBL1143200, “Design and physicochemical properties of new fluorescent ligands of protein kinase C isozymes focused on CH/pi interaction” (Bioorg Med Chem, 2008)
# Columns and labels:
# [1] = biological target: T1, Protein kinase C alpha type (Homo sapiens, UniProt P17252); assay: Displacement of [3H]PDBu from PKCalpha C1A domain
# [2] = biological target: Protein kinase C eta type (Homo sapiens, UniProt P24723); assay: Displacement of [3H]PDBu from PKCeta C1B domain
# Chain of Protein kinase C eta type (P24723 whole entry, the tested form may be a part): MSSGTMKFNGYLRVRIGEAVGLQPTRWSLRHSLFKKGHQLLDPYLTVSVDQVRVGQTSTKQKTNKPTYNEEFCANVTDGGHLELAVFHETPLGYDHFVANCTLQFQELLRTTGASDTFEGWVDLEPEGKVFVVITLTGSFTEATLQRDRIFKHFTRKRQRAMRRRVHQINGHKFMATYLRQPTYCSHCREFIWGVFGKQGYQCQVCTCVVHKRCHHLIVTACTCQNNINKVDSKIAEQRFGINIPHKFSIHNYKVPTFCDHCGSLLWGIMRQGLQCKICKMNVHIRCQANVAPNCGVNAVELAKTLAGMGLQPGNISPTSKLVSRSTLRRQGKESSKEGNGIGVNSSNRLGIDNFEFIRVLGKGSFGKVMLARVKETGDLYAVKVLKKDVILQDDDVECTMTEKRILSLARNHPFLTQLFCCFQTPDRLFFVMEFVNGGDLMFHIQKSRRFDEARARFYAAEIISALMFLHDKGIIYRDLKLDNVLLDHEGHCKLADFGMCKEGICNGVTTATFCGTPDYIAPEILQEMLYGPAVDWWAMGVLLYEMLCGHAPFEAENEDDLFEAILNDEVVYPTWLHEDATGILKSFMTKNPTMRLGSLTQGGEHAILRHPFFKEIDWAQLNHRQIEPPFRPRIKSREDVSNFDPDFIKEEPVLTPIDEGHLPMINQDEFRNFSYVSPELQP
# [3] = biological target: Protein kinase C theta type (Homo sapiens, UniProt Q04759); assay: Displacement of [3H]PDBu from PKCtheta C1B domain
# Chain of Protein kinase C theta type (Q04759 whole entry, the tested form may be a part): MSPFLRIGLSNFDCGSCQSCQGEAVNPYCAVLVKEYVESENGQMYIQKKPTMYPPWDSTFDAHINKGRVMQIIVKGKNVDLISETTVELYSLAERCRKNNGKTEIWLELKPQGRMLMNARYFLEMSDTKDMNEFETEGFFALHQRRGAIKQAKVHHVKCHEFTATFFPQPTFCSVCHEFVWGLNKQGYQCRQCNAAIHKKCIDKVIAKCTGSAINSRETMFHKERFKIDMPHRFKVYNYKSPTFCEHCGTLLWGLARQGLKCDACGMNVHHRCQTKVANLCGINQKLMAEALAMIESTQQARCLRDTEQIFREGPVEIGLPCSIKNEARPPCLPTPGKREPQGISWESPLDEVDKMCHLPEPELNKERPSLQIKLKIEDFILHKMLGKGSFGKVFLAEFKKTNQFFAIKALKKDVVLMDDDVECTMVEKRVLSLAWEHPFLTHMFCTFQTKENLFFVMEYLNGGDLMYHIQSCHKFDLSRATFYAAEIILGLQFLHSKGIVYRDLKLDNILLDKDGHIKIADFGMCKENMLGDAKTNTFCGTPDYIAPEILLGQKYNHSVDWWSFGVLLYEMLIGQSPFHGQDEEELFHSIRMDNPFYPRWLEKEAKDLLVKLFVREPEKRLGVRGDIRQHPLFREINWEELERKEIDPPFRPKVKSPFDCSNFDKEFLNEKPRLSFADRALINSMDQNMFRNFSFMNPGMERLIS
# [4] = biological target: T1, Protein kinase C alpha type; assay: Displacement of [3H]PDBu from PKCalpha C1B domain
# [5] = biological target: T2, Protein kinase C gamma type (Homo sapiens, UniProt P05129); assay: Displacement of [3H]PDBu from PKCgamma C1A domain
# [6] = biological target: T3, Protein kinase C epsilon type (Homo sapiens, UniProt Q02156); assay: Displacement of [3H]PDBu from PKCepsilon C1B domain
# T3 sequence (Q02156 whole entry): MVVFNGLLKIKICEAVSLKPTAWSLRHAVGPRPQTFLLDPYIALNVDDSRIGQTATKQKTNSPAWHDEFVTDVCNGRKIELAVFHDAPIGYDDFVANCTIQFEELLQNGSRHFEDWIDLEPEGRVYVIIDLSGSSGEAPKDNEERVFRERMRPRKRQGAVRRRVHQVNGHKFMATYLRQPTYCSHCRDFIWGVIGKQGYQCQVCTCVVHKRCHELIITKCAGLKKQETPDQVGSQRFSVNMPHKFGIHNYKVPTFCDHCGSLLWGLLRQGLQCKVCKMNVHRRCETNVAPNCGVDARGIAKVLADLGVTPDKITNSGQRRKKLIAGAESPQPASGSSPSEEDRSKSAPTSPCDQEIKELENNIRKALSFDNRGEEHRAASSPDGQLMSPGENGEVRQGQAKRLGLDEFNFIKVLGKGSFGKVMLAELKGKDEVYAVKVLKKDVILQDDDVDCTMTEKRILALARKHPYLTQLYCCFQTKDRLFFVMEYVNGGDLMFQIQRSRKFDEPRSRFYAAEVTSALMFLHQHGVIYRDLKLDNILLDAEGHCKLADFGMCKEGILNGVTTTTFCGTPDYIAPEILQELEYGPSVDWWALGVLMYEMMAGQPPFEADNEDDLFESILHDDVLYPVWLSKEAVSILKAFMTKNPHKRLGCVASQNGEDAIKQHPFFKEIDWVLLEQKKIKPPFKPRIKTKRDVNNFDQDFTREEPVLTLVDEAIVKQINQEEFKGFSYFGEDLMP
# [7] = biological target: T4, Protein kinase C beta type (Homo sapiens, UniProt P05771); assay: Displacement of [3H]PDBu from PKCbeta C1A domain
# T4 sequence (P05771 whole entry, the tested form may be a part): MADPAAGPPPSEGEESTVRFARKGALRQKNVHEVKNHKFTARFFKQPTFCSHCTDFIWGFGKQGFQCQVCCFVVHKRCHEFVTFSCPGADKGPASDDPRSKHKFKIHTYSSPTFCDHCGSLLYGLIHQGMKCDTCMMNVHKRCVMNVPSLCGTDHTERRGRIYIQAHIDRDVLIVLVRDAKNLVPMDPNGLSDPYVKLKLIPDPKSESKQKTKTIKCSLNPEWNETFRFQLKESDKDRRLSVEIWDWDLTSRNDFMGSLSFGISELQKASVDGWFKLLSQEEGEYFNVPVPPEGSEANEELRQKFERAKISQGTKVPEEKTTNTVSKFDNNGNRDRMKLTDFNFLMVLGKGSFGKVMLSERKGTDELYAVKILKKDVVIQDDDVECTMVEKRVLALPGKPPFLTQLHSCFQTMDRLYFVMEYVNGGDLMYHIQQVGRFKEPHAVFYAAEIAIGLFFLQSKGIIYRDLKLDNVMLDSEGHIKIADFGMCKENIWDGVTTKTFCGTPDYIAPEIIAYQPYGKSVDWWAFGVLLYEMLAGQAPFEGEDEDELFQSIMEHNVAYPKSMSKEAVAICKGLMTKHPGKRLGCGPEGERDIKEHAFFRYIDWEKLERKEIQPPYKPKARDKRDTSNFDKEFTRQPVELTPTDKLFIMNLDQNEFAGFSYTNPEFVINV
# [8] = biological target: T4, Protein kinase C beta type; assay: Displacement of [3H]PDBu from PKCbeta C1B domain
# [9] = biological target: T2, Protein kinase C gamma type; assay: Displacement of [3H]PDBu from PKCgamma C1B domain
# [10] = biological target: Protein kinase C delta type (Homo sapiens, UniProt Q05655); assay: Displacement of [3H]PDBu from PKCdelta C1B domain
# Chain of Protein kinase C delta type (Q05655 whole entry, the tested form may be a part): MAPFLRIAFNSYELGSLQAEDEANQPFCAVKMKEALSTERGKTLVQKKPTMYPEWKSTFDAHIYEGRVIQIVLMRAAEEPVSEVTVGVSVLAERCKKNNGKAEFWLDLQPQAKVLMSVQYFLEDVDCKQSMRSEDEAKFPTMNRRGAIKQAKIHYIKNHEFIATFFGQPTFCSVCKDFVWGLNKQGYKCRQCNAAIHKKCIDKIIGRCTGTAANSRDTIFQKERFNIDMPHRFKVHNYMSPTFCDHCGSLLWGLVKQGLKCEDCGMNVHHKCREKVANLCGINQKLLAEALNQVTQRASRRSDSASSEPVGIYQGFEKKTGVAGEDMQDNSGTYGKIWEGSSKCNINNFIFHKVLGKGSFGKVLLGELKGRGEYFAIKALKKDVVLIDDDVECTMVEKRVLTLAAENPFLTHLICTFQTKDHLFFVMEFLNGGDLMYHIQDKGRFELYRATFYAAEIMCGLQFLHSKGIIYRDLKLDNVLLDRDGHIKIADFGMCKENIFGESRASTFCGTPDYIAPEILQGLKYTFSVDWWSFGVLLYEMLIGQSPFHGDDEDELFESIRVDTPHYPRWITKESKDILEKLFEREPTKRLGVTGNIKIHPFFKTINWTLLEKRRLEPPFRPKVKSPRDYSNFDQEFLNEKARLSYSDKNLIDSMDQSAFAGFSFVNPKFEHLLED
Compound,Ki [1] [nM],Ki [2] [nM],Ki [3] [nM],Ki [4] [nM],Ki [5] [nM],Ki [6] [nM],Ki [7] [nM],Ki [8] [nM],Ki [9] [nM],Ki [10] [nM]
CC(C)[C@H]1C(=O)N[C@H](CO)Cc2cn3nc(C(F)(F)F)c4ccc(c2c43)N1C,112,29.7,51.1,721,234,80.1,127,9380,1100,52.1
CC(C)[C@H]1C(=O)N[C@H](CO)Cc2cn3ncc4ccc(c2c43)N1C,85.5,9.9,18.6,357,61.3,22.5,88,5960,225,17.7
Cc1nn2cc3c4c(ccc1c42)N(C)[C@@H](C(C)C)C(=O)N[C@H](CO)C3,1090,223,149,2620,1510,407,1100,> 10000,2580,128
CC(C)[C@H]1C(=O)N[C@H](CO)Cc2c[nH]c3cccc(c23)N1C [INDOLACTUM],–,–,–,140,–,–,–,4000,–,–
